Measured values published in patent publication US20040014187A1, “Bacterial carboxypeptidase cpg2 variants and their use in gene directed enzyme prodrug therapy” (priority 2000, published 2004).
Values joined by “and” are separate entries in the source; they are usually repeats but may differ in a detail not shown here. Equal entries are not always repeated. Where two headings read alike, the source gives them in different places.

How the values were obtained:
WiDr cells [1] = details: WiDr clone expressing CPG2*, previous study; read-out: IC50 for CMDA; cited from earlier work
[2] = patients, ADEPT trial; cited from earlier work
A2780 cells [3] = assay: Cytotoxicity of CMDA, [3H]-thymidine incorporation; assay type: cell-based, human
Description: (§1) Cytotoxicity and bystander cytotoxicity assays were performed as described previously (Marais et al (1996) Cancer Res. 56, 4735-4742). Briefly, for cytotoxicity assays, cells were grown to confluence and treated twice, once for an hour, immediately followed by an 18 h treatment, using increasing amounts of CMDA prodrug in DMEM/FCS. Cells were trypsinized and approximately 3% were replated and allowed to grow for a further 4 days, when uptake of [^3H]-thymidine was used to infer survival. For bystander assays, mixtures of cells expressing stCPG2(Q)3 and cells of the same lineage expressing β-galactosidase were treated with a single concentration of CMDA in the same two-stage treatment protocol, using 2 mM CMDA for WiDr and SK-OV-3 cells and 1 mM CMDA for A2780 cells.

WiDr cells [4] = assay: Cytotoxicity of CMDA, [3H]-thymidine incorporation; assay type: cell-based, human
Description: as §1

SK-OV-3 cells [5] = assay: Cytotoxicity of CMDA, [3H]-thymidine incorporation; assay type: cell-based, human
Description: as §1

A2780 cells [6] = details: A2780 clone expressing CPG2*, previous study; read-out: IC50 for CMDA; cited from earlier work
SK-OV-3 cells [7] = details: SK-OV-3 clone expressing CPG2* (1.013 U/mg), previous study; read-out: IC50 for CMDA; cited from earlier work
[8] = tested on: control cell lines expressing lacZ; assay: Kinetics of cell death: toxicity of CMDA test concentrations to control cells; assay type: cell-based, human; details: 2 mM CMDA (WiDr, SK-OV-3) or 1 mM CMDA (A2780)
Description: To determine exposure times to CMDA required for the death of 50% of the cell populations, cell lines were plated at 3×10^5 cells per well in 6-well tissue culture plates, and allowed to grow to confluence. Tissue culture medium was replaced with 1 ml DMEM/FCS containing 2 mM CMDA (for WiDr and SK-OV-3 cell lines) or 1 mM CMDA (for A2780 cell lines). These concentrations are not toxic to control cell lines expressing lacZ. After 0.5, 1, 2, 4, 8, 12, and 16 h exposure, cells were trypsinized and approximately 3% were replated. After a further 4 d growth, cell survival was determined by [^3H]-thymidine incorporation (0.4 μCi/ml, 6h).

CS(=O)(=O)OCCN(CCCl)c1ccc(C(=O)N[C@@H](CCC(=O)O)C(=O)O)cc1 [CMDA, N-4-[(2-chloroethyl) (2-mesyloxyethyl)amino]benzoyl-L-glutamic acid]
IC50 (WiDr cells [1]): 277 µM | peak CMDA concentration in sera [2]: approximately 3 mM | IC50 (A2780 cells [3]; A2780 clone A3 expressing stCPG2(Q)3): 15.6 µM | Differential cytotoxicity (fold) (A2780 cells [3]; A2780 clone A3 stCPG2(Q)3 versus lacZ): 138 fold | IC50 (A2780 cells [3]; A2780 clone A4 expressing stCPG2(Q)3): 20.4 µM | Differential cytotoxicity (fold) (A2780 cells [3]; A2780 clone A4 stCPG2(Q)3 versus lacZ): 105 fold | increase in sensitivity compared to β-gal expressing cells (A2780 cells [3]; A2780 clones expressing stCPG2(Q)3): > 100 fold | IC50 (A2780 cells [3]; A2780 expressing lacZ (β-gal)): 2150 µM | Differential cytotoxicity (fold) (WiDr cells [4]; WiDr clone W3 stCPG2(Q)3 versus lacZ): 32.3 fold | Differential cytotoxicity (fold) (WiDr cells [4]; WiDr clone W4 stCPG2(Q)3 versus lacZ): 22.0 fold | IC50 (WiDr cells [4]; WiDr clones expressing stCPG2(Q)3, read-out: IC50 for CMDA): 100 to 150 µM and 100 µM and 147 µM | IC50 (WiDr cells [4]; WiDr expressing lacZ (β-gal), read-out: IC50 (μM CMDA)): 3230 µM | Differential cytotoxicity (fold) (SK-OV-3 cells [5]; SK-OV-3 clone S2.34 CPG2* versus lacZ): 3.2 fold | IC50 (SK-OV-3 cells [5]; SK-OV-3 clone S2.34 expressing CPG2*, read-out: IC50 (μM CMDA)): 1290 µM | Differential cytotoxicity (fold) (SK-OV-3 cells [5]; SK-OV-3 clone S2.4 CPG2* versus lacZ): 1.3 fold | IC50 (SK-OV-3 cells [5]; SK-OV-3 clone S2.4 expressing CPG2*, read-out: IC50 (μM CMDA)): 3200 µM | IC50 (SK-OV-3 cells [5]; SK-OV-3 clone S5 expressing stCPG2(Q)3, read-out: IC50 (μM CMDA)): 216 µM | Differential cytotoxicity (fold) (SK-OV-3 cells [5]; SK-OV-3 clone S5 stCPG2(Q)3 versus lacZ): 19.4 fold | IC50 (SK-OV-3 cells [5]; SK-OV-3 clone S6 expressing stCPG2(Q)3, read-out: IC50 (μM CMDA)): 479 µM | Differential cytotoxicity (fold) (SK-OV-3 cells [5]; SK-OV-3 clone S6 stCPG2(Q)3 versus lacZ): 8.7 fold | IC50 (SK-OV-3 cells [5]; SK-OV-3 clone S7 expressing stCPG2(Q)3, read-out: IC50 (μM CMDA)): 544 µM | Differential cytotoxicity (fold) (SK-OV-3 cells [5]; SK-OV-3 clone S7 stCPG2(Q)3 versus lacZ): 7.7 fold | increase in sensitivity compared to β-gal expressing cells (SK-OV-3 cells [5]; SK-OV-3 clones expressing stCPG2(Q)3): 7-20 fold | IC50 (SK-OV-3 cells [5]; SK-OV-3 clones expressing stCPG2(Q)3, read-out: IC50 for CMDA): 216 to 544 µM | IC50 (SK-OV-3 cells [5]; SK-OV-3 expressing lacZ, read-out: IC50 (μM CMDA)): 4180 µM | IC50 (A2780 cells [6]): 23.2 µM | IC50 (SK-OV-3 cells [7]): 258 µM | toxicity to control cell lines expressing lacZ [8]: not toxic
